Laboratory results published in US10681908B2, “Molecules having pesticidal utility, and intermediates, compositions, and processes, related thereto” (Dow AgroSciences LLC, priority 2016, dated 2020).
Where two headings read alike, the source gives them in different places.

Legend:
[1] = tested on: Cabbage Looper (Trichoplusia ni, TRIPNI); assay: Bioassay on Cabbage Looper (CL), 128-well diet tray assay; format: in vivo; conditions: for mortality at 50 µg/cm2: 168 h, 50 μg/cm^2 on artificial diet, second instar larvae, five to seven days, 25° C., read-out: CL % Control (or Mortality) rating
Procedure, shortened: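 Diet-tray assay: 1–5 second-instar larvae per well on artificial diet surface-treated with 50 μg/cm^2 compound (90:10 acetone-water, dried), eight wells per compound. Held at 25° C., 14:10 light-dark for five to seven days; percent mortality per well averaged across the eight wells.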

[2] = tested on: Beet Armyworm (Spodoptera exigua, LAPHEG); assay: Bioassay on Beet Armyworm (BAW), 128-well diet tray assay; format: in vivo; conditions: for mortality at 50 µg/cm2: 168 h, 50 μg/cm^2 on artificial diet, second instar larvae, five to seven days, 25° C., read-out: BAW % Control (or Mortality) rating
Procedure, shortened: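 Artificial diet was surface-treated with 50 μg/cm^2 of compound in 90:10 acetone-water and dried; one to five second-instar larvae were placed per well, eight wells per treatment. Held at 25 °C, 14:10 light-dark, for five to seven days, then percent mortality per well was averaged.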

[3] = 0.05 μg/cm^2, read-out: CL Percent control (or mortality)
[4] = 0.5 μg/cm^2, read-out: CL Percent control (or mortality)
[5] = 5 μg/cm^2, read-out: CL Percent control (or mortality)
[6] = 0.05 μg/cm^2, read-out: BAW Percent control (or mortality)
[7] = 0.5 μg/cm^2, read-out: BAW Percent control (or mortality)
[8] = 5 μg/cm^2, read-out: BAW Percent control (or mortality)

Structure (SMILES) | mortality at 50 µg/cm2 [1] [%] | mortality at 50 µg/cm2 [2] [%] | other results
CCC(F)(F)C(/C=C(\F)c1ccc(C(=O)N[C@H](C)CSCC(F)(F)F)c(C(F)(F)F)c1)c1cc(Cl)c(Cl)c(Cl)c1 (stereo partly drawn) [F39, 4-((Z)-1,4,4-Trifluoro-3-(3,4,5-trichlorophenyl)hex-1-en-1-yl)-N—((R)-1-((2,2,2-trifluoroethyl)thio)propan-2-yl)-2-(trifluoromethyl)benzamide] | 50 to 100 | 50 to 100 | 
Cc1cc(/C(F)=C/C(c2cc(Cl)c(Cl)c(Cl)c2)C(F)(F)F)ccc1C(=O)N[C@H](C)CSCC(F)(F)F (stereo partly drawn) [F4, 2-Methyl-4-((Z)-1,4,4,4-tetrafluoro-3-(3,4,5-trichlorophenyl)but-1-en-1-yl)-N—((R)-1-((2,2,2-trifluoroethyl)thio)propan-2-yl)benzamide] | 50 to 100 | 50 to 100 | mortality at 0.05 µg/cm2 ([1]; 0.05 μg/cm^2, Table CD2 comparative data, read-out: Percent control (or mortality) CL): 7%; mortality at 0.5 µg/cm2 ([1]; 0.5 μg/cm^2, Table CD2 comparative data, read-out: Percent control (or mortality) CL): 60%; mortality at 5 µg/cm2 ([1]; 5 μg/cm^2, Table CD2 comparative data, read-out: Percent control (or mortality) CL): 100%; mortality at 0.05 µg/cm2 ([2]; 0.05 μg/cm^2, Table CD2 comparative data, read-out: Percent control (or mortality) BAW): 67%; mortality at 0.5 µg/cm2 ([2]; 0.5 μg/cm^2, Table CD2 comparative data, read-out: Percent control (or mortality) BAW): 100%; mortality at 5 µg/cm2 ([2]; 5 μg/cm^2, Table CD2 comparative data, read-out: Percent control (or mortality) BAW): 100%
C=Cc1cc(C(/C=C(\F)c2ccc(C(=O)N[C@H](C)CS(=O)(=O)CC(F)(F)F)c(C(F)(F)F)c2)C(F)(F)F)cc(Cl)c1Cl (stereo partly drawn) [F73, 4-((Z)-3-(3,4-dichloro-5-vinylphenyl)-1,4,4,4-tetrafluorobut-1-en-1-yl)-N—((R)-1-((2,2,2-trifluoroethyl)sulfonyl)propan-2-yl)-2-(trifluoromethyl)benzamide] | 50 to 100 | 50 to 100 | 
C[C@H](CS(=O)(=O)CC(F)F)NC(=O)c1ccc(/C(F)=C/C(c2cc(Cl)c(Cl)c(Cl)c2)C(F)(F)F)cc1C(F)(F)F (stereo partly drawn) [F129, N—((R)-1-((2,2-difluoroethyl)sulfonyl)propan-2-yl)-4-((Z)-1,4,4,4-tetrafluoro-3-(3,4,5-trichlorophenyl)but-1-en-1-yl)-2-(trifluoromethyl)benzamide] | 50 to 100 | 50 to 100 | 
C[C@H](CS(=O)(=O)CC(F)(F)F)NC(=O)c1ccc(/C(F)=C/C(c2cc(F)cc(Cl)c2)C(F)(F)F)cc1C(F)(F)F (stereo partly drawn) [F126, 4-((Z)-3-(3-Chloro-5-fluorophenyl)-1,4,4,4-tetrafluorobut-1-en-1-yl)-N—((R)-1-((2,2,2-trifluoroethyl)sulfonyl)propan-2-yl)-2-(trifluoromethyl)benzamide] | 50 to 100 | 50 to 100 | 
C[C@H](CSCC(C)(F)F)NC(=O)c1ccc(/C(F)=C/C(c2cc(Cl)c(Cl)c(Cl)c2)C(F)(F)F)cc1C(F)(F)F (stereo partly drawn) [F113, N—((R)-1-((2,2-Difluoropropyl)thio)propan-2-yl)-4-((Z)-1,4,4,4-tetrafluoro-3-(3,4,5-trichlorophenyl)but-1-en-1-yl)-2-(trifluoromethyl)benzamide] | 50 to 100 | 50 to 100 | 
C[C@H](CS(=O)(=O)CC(F)(F)F)NC(=O)c1ccc(/C(F)=C/C(c2cc(F)c(Cl)c(C(F)(F)F)c2)C(F)(F)F)cc1C(F)(F)F (stereo partly drawn) [F71, 4-((Z)-3-(4-Chloro-3-fluoro-5-(trifluoromethyl)phenyl)-1,4,4,4-tetrafluorobut-1-en-1-yl)-N—((R)-1-((2,2,2-trifluoroethyl)sulfonyl)propan-2-yl)-2-(trifluoromethyl)benzamide] | 50 to 100 | 50 to 100 | 
C[C@H](CS(=O)(=O)CC(F)(F)F)NC(=O)c1ccc(/C(F)=C/C(c2cc(Cl)cc(C(F)(F)F)c2)C(F)(F)F)cc1C(F)(F)F (stereo partly drawn) [F81, 4-((Z)-3-(3-Chloro-5-(trifluoromethyl)phenyl)-1,4,4,4-tetrafluorobut-1-en-1-yl)-N—((R)-1-((2,2,2-trifluoroethyl)sulfonyl)propan-2-yl)-2-(trifluoromethyl)benzamide] | 50 to 100 | 50 to 100 | 
C[C@H](CS(=O)(=O)CC(F)(F)F)NC(=O)c1ccc(/C(F)=C/C(c2cc(Cl)c(Cl)c(Cl)c2)C(C)(F)F)cc1 (stereo partly drawn) [FC1, 4-((Z)-1,4,4-Trifluoro-3-(3,4,5-trichlorophenyl)pent-1-en-1-yl)-N—((R)-1-((2,2,2-trifluoroethyl)sulfonyl)propan-2-yl)benzamide] |  |  | mortality at 0.05 µg/cm2 [1, 3]: 0%; mortality at 0.5 µg/cm2 [1, 4]: 81%; mortality at 5 µg/cm2 [1, 5]: 100%; mortality at 0.05 µg/cm2 [2, 6]: 0%; mortality at 0.5 µg/cm2 [2, 7]: 20%; mortality at 5 µg/cm2 [2, 8]: 100%
C=Cc1cc(/C(F)=C/C(c2cc(Cl)c(Cl)c(Cl)c2)C(F)(F)F)ccc1C(=O)N[C@H](C)CS(=O)(=O)CC(F)(F)F (some centres unmarked) [F116] | 50 to 100 | 50 to 100 | 
C[C@H](CS(=O)(=O)CC(F)(F)F)NC(=O)c1ccc(/C(F)=C/C(c2cc(Cl)cc(OC(F)(F)F)c2)C(F)(F)F)cc1C(F)(F)F (stereo partly drawn) [F110, 4-((Z)-3-(3-Chloro-5-(trifluoromethoxy)phenyl)-1,4,4,4-tetrafluorobut-1-en-1-yl)-N—((R)-1-((2,2,2-trifluoroethyl)sulfonyl)propan-2-yl)-2-(trifluoromethyl)benzamide] | 50 to 100 | 50 to 100 | 
Cc1cc(/C(F)=C/C(c2cc(Cl)c(Cl)c(Cl)c2)C(C)(F)F)ccc1C(=O)N[C@H](C)CS(=O)(=O)CC(F)(F)F (stereo partly drawn) [F14, 2-Methyl-4-((Z)-1,4,4-trifluoro-3-(3,4,5-trichlorophenyl)pent-1-en-1-yl)-N—((R)-1-((2,2,2-trifluoroethyl)sulfonyl)propan-2-yl)benzamide] | 50 to 100 | 50 to 100 | mortality at 0.05 µg/cm2 [1, 3]: 100%; mortality at 0.5 µg/cm2 [1, 4]: 100%; mortality at 5 µg/cm2 [1, 5]: 100%; mortality at 0.05 µg/cm2 [2, 6]: 69%; mortality at 0.5 µg/cm2 [2, 7]: 100%; mortality at 5 µg/cm2 [2, 8]: 100%
C[C@H](CS(=O)(=O)CC(F)(F)F)NC(=O)c1ccc(/C(F)=C/C(c2ccc(Cl)c(Cl)c2)C(F)(F)F)cc1Br (some centres unmarked) [F67] | 50 to 100 | 50 to 100 | 
CSC(C)CNC(=O)c1ccc(/C(F)=C/C(c2cc(Cl)c(Cl)c(Cl)c2)C(F)(F)F)cc1C(F)(F)F (centres unmarked) [F89, (Z)—N-(2-(Methylthio)propyl)-4-(1,4,4,4-tetrafluoro-3-(3,4,5-trichlorophenyl)but-1-en-1-yl)-2-(trifluoromethyl)benzamide] | 50 to 100 | 50 to 100 | 
O=C(NCCSCC(F)(F)F)c1ccc(/C(F)=C/C(c2cc(Cl)c(Cl)c(Cl)c2)C(F)(F)F)cc1C(F)(F)F (centres unmarked) [F51, (Z)-4-(1,4,4,4-tetrafluoro-3-(3,4,5-trichlorophenyl)but-1-en-1-yl)-N-(2-((2,2,2-trifluoroethyl)thio)ethyl)-2-(trifluoromethyl)benzamide] | 50 to 100 | 50 to 100 | 
C[C@H](CSCC(F)(F)F)NC(=O)c1ccc(/C(F)=C/C(c2cc(Cl)c(Cl)c(Cl)c2)C(C)(F)F)cc1C(F)(F)F (stereo partly drawn) [F15, 4-((Z)-1,4,4-Trifluoro-3-(3,4,5-trichlorophenyl)pent-1-en-1-yl)-N—((R)-1-((2,2,2-trifluoroethyl)thio)propan-2-yl)-2-(trifluoromethyl)benzamide] | 50 to 100 | 50 to 100 | 
C[C@H](CSCCC(F)(F)F)NC(=O)c1ccc(/C(F)=C/C(c2cc(Cl)c(Cl)c(Cl)c2)C(F)(F)F)cc1C(F)(F)F (stereo partly drawn) [F137, 4-((Z)-1,4,4,4-Tetrafluoro-3-(3,4,5-trichlorophenyl)but-1-en-1-yl)-2-(trifluoromethyl)-N—((R)-1-((3,3,3-trifluoropropyl)thio)propan-2-yl)benzamide] | 50 to 100 | 50 to 100 | 
